Source: patent EP0807624B1, “RETINOIC ACID DERIVATIVES” (THE SALK INSTITUTE FOR BIOLOGICAL STUDIES, priority 1991, dated 1993)

Assays:
[1] = test system: human primary metastatic melanoma cell line c81-46c; test: In vitro proliferation of melanoma cell line; format: cell-based; settings: read-out: % Growth inhibition; for inhibition at 0.01 µM: 0.01 µM added; for inhibition at 1 µM: 1 µM added
[2] = test system: normal human epidermal keratinocytes (NHEK534 cell line); test: cells; settings: Keratinocyte, read-out: EC50 for inhibition of differentiation
[3] = test system: murine melanoma cell line Clone M3; test: In vitro proliferation of melanoma cell line; settings: Mus musculus, read-out: % Growth inhibition
RAR-α = test: Cotransfection assay in CV-1 cells; format: cell-based, human; settings: RARα; maximal response relative to retinoic acid at 10^-5 M
RAR-β = test: Cotransfection assay in CV-1 cells; format: cell-based, human; settings: RARβ; maximal response relative to retinoic acid at 10^-5 M
RAR-γ = test: Cotransfection assay in CV-1 cells; format: cell-based, human; settings: RARγ; maximal response relative to retinoic acid at 10^-5 M
RXR-α = test: Cotransfection assay in CV-1 cells; format: cell-based, human; settings: RXRα; maximal response relative to retinoic acid at 10^-5 M
RXR-β = biological target: T1, RXR-β (Mus musculus, UniProt P28704); test: Cotransfection assay in CV-1 cells; format: cell-based; settings: RXRβ; maximal response relative to retinoic acid at 10^-5 M
T1 sequence (P28704 1-520): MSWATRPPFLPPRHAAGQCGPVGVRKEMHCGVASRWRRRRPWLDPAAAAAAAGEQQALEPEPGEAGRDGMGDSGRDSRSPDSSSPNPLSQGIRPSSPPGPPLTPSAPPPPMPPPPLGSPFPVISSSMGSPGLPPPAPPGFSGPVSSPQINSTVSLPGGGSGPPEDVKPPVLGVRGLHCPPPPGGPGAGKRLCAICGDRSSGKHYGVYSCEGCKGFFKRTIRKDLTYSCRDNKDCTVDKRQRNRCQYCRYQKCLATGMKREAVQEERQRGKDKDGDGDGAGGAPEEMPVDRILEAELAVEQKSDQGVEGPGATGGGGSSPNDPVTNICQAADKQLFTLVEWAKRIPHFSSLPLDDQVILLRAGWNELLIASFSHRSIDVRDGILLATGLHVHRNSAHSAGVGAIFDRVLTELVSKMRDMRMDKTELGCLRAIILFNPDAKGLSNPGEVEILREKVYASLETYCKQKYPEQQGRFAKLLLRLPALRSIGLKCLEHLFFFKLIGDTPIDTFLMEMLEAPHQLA

RXR-γ = biological target: T2, RXR-γ (Mus musculus, UniProt P28705); test: Cotransfection assay in CV-1 cells; format: cell-based; settings: RXRγ; maximal response relative to retinoic acid at 10^-5 M
T2 sequence (P28705 1-463): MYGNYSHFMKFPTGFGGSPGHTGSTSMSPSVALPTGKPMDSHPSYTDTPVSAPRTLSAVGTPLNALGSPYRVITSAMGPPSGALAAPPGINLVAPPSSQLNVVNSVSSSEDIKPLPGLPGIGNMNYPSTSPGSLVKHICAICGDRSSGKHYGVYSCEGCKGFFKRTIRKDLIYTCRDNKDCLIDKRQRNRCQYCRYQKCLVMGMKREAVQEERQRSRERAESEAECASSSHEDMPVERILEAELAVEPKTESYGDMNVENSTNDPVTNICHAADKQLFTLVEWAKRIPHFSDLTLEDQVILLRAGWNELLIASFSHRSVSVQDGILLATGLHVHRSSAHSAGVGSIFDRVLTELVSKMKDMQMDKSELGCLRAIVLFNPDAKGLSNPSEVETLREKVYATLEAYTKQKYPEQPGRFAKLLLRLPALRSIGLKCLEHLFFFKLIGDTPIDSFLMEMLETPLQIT

HL60R cells = test: Differentiation of HL60R cells (NBT); format: cell-based; settings: concentrations up to 10 µM
HL60 cells = test: cells; settings: Homo sapiens, HL-60, 144 h, read-out: EC-50 for differentiation, as determined by NBT

Row | Efficacy (RXR-β) [%] | Efficacy (RXR-γ) [%] | SMILES | inhibition at 0.01 µM [1] [%] | inhibition at 1 µM [1] [%] | EC50 [2] [µM] | inhibition at 0.01 µM [3] [%] | inhibition at 1 µM [3] [%] | Efficacy (RAR-α) [%] | Efficacy (RAR-β) [%] | Efficacy (RAR-γ) [%] | Efficacy (RXR-α) [%] | differentiation (NBT) of HL60R cells (HL60R cells) | EC50 (HL60 cells) [µM]
1 | 88 | 77 | CC1=C(/C=C/C(=C\C=C\C(C)=C\C(=O)O)c2ccccc2)C(C)(C)CCC1 [9-phenyl-9-cis-retinoic acid] |  |  |  |  |  | <2 | 39 | 59 | 76 |  | 
2 | 105 | 133 | CC1=C(/C=C/C(C)=C\C=C\C(C)=C\C(=O)O)C(C)(C)CCC1=O [4-keto-9-cis-retinoic acid] |  |  |  |  |  |  |  |  | 104 |  | 

More lines, now with the values behind:

Row | SMILES | Efficacy (RXR-β) [%] | Efficacy (RXR-γ) [%] | inhibition at 0.01 µM [1] [%] | inhibition at 1 µM [1] [%] | EC50 [2] [µM] | inhibition at 0.01 µM [3] [%] | inhibition at 1 µM [3] [%] | Efficacy (RAR-α) [%] | Efficacy (RAR-β) [%] | Efficacy (RAR-γ) [%] | Efficacy (RXR-α) [%] | differentiation (NBT) of HL60R cells (HL60R cells) | EC50 (HL60 cells) [µM]
3 | CC1=C(/C=C/C(C)=C\C=C\C(C)=C\C(=O)O)C(C)(C)CCC1 [9-cis-retinoic acid] |  |  | -28 | -45 | 0.02 ± 0.0028 | -49 | -85 |  |  |  |  |  | 
4 | CC1=C(/C=C/C(C)=C\C=C\C(C)=C\C(=O)O)C(C)(C)CCC1O (stereo not drawn) [4-hydroxy-9-cis-retinoic acid] | 143 | 115 |  |  |  |  |  | 65 | 71 | 81 |  |  | 
5 | CC1=C(/C=C/C(C)=C/C=C/C(C)=C/C(=O)O)C(C)(C)CCC1 [all-trans-retinoic acid] |  |  | -17 | -44 | 0.02 ± 0.0028 |  |  |  |  |  |  | resistant to differentiation | 2
